# Assay results from US12286424B2, “Small molecule inhibitors of galectin-3” (BRISTOL-MYERS SQUIBB COMPANY, priority 2020, dated 2025).
# Like-named read-outs stand apart in the source and are kept apart here.
# Molecular target: T1, hGalectin-3 (Homo sapiens, UniProt P17931)
# T1 construct: made in house
# Test: Gal-3 ELISA assay (hGalectin-3 neutralization binding to asialofetuin)
# [1] = biotin-tagged hGalectin-3 15 nM, ASF-coated plate, read-out: hGal3 IC50
# T1 sequence (P17931 whole entry): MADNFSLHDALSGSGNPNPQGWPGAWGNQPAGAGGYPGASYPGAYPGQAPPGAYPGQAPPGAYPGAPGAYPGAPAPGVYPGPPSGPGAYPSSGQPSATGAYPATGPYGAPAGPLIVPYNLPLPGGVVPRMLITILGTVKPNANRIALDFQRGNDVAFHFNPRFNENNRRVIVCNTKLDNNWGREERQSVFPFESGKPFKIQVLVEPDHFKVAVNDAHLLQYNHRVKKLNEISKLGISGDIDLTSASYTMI
SMILES,IC50 [1],also measured
"O=C([C@@H]1O[C@H](CO)[C@H](O)[C@H](n2cc(-c3cccc(F)c3)nn2)[C@H]1O)N1CCN(c2ccc(O)cc2)CC1 [Example 1, ((2R, 3R, 4S, 5R, 6R)-4-(4-(3-fluorophenyl)-1H-1,2,3-triazol-1-yl)-3,5-dihydroxy-6-(hydroxymethyl)tetrahydro-2H-pyran-2-yl)(4-(4-hydroxyphenyl)piperazin-1-yl) methanone]",350 nM,
O=C([C@@H]1O[C@H](CO)[C@H](O)[C@H](n2cc(-c3cccc(F)c3)nn2)[C@H]1O)N1CCN(c2ccc(O)cn2)CC1 [Example 2],270 nM,"IC50 (Table 1, read-out: hGal-3 IC50): 395 nM"
O=C([C@@H]1O[C@H](CO)[C@H](O)[C@H](n2cc(-c3cccc(F)c3)nn2)[C@H]1O)N1CCN(c2ccc3[nH]ccc3c2)CC1 [Example 3],,"IC50 (Table 1, read-out: hGal-3 IC50): 480 nM"
O=C([C@@H]1O[C@H](CO)[C@H](O)[C@H](n2cc(-c3cccc(F)c3)nn2)[C@H]1O)N1CCN(c2ncc(O)cn2)CC1 [Example 4],,"IC50 (Table 1, read-out: hGal-3 IC50): 850 nM"
COc1cc(N2CCN(C(=O)[C@@H]3O[C@H](CO)[C@H](O)[C@H](n4cc(-c5cccc(F)c5)nn4)[C@H]3O)CC2)ccc1O [Example 5],,"IC50 (Table 1, read-out: hGal-3 IC50): 360 nM"
Cn1ccc2cc(N3CCN(C(=O)[C@@H]4O[C@H](CO)[C@H](O)[C@H](n5cc(-c6cccc(F)c6)nn5)[C@H]4O)CC3)ccc21 [Example 6],,"IC50 (Table 1, read-out: hGal-3 IC50): 420 nM"
"CS(=O)(=O)Nc1ccc(N2CCN(C(=O)[C@@H]3O[C@H](CO)[C@H](O)[C@H](n4cc(-c5cccc(F)c5)nn4)[C@H]3O)CC2)nc1 [Example 8, N-(6-(4-((2R,3R,4S,5R,6R)-4-(4-(3-fluorophenyl)-1H-1,2,3-triazol-1-yl)-3,5-dihydroxy-6-(hydroxymethyl)tetrahydro-2H-pyran-2-carbonyl)piperazin-1-yl)pyridin-3-yl)methanesulfonamide]",760 nM,
"O=C([C@@H]1O[C@H](CO)[C@H](O)[C@H](n2cc(-c3cccc(F)c3)nn2)[C@H]1O)N1CCN(c2ccc3[nH]c(=O)[nH]c3c2)CC1 [Example 9, 5-(4-((2R,3R,4S,5R,6R)-4-(4-(3-fluorophenyl)-1H-1,2,3-triazol-1-yl)-3,5-dihydroxy-6-(hydroxymethyl)tetrahydro-2H-pyran-2-carbonyl)piperazin-1-yl)-1H-benzo[d]imidazol-2(3H)-one]",390 nM,
"COc1ccc(N2CCN(C(=O)[C@@H]3O[C@H](CO)[C@H](O)[C@H](n4cc(-c5cccc(F)c5)nn4)[C@H]3OC)CC2)cc1 [Example 11, ((2R, 3R, 4S, 5R, 6R)-4-(4-(3-fluorophenyl)-1H-1,2,3-triazol-1-yl)-5-hydroxy-6-(hydroxymethyl)-3-methoxytetrahydro-2H-pyran-2-yl)(4-(4-methoxyphenyl)piperazin-1-yl) methanone]",300 nM,
"CO[C@@H]1[C@@H](n2cc(-c3cccc(F)c3)nn2)[C@@H](O)[C@@H](CO)O[C@H]1C(=O)N1CCN(c2ccc(O)cn2)CC1 [Example 12, ((2R, 3R, 4S, 5R, 6R)-4-(4-(3-fluorophenyl)-1H-1,2,3-triazol-1-yl)-5-hydroxy-6-(hydroxymethyl)-3-methoxytetrahydro-2H-pyran-2-yl)(4-(5-hydroxypyridin-2-yl)piperazin-1-yl) methanone]",470 nM,
"CO[C@@H]1[C@@H](n2cc(-c3cccc(F)c3)nn2)[C@@H](O)[C@@H](CO)O[C@H]1C(=O)N1CCN(c2ccc(O)cc2)CC1 [Example 13, ((2R,3R,4S,5R,6R)-4-(4-(3-fluorophenyl)-1H-1,2,3-triazol-1-yl)-5-hydroxy-6-(hydroxymethyl)-3-methoxytetrahydro-2H-pyran-2-yl)(4-(4-hydroxyphenyl)piperazin-1-yl)methanone]",150 nM,
CO[C@@H]1[C@@H](n2cc(-c3cccc(F)c3)nn2)[C@@H](O)[C@@H](CO)O[C@H]1C(=O)N1CCN(c2ccc3c(ccn3C)c2)CC1 [Example 14],,"IC50 (Table 2, read-out: hGal-3 IC50): 410 nM"
COc1ccc(N2C[C@H]3C[C@@H]2CN3C(=O)[C@@H]2O[C@H](CO)[C@H](O)[C@H](n3cc(-c4cccc(F)c4)nn3)[C@H]2OC)cc1 [Example 16],,"IC50 (Table 2, read-out: hGal-3 IC50): 530 nM"
CO[C@@H]1[C@@H](n2cc(-c3cccc(F)c3)nn2)[C@@H](O)[C@@H](CO)O[C@H]1C(=O)N1C[C@H]2C[C@@H]1CN2c1ccc2c(c1)OCO2 [Example 17],,"IC50 (Table 2, read-out: hGal-3 IC50): 311 nM"
"O=C(Nc1ccc(O)cc1)N1CCN(C(=O)[C@@H]2O[C@H](CO)[C@H](O)[C@H](n3cc(-c4cccc(F)c4)nn3)[C@H]2O)CC1 [Example 18, 4-((2R,3R,4S,5R,6R)-4-(4-(3-fluorophenyl)-1H-1,2,3-triazol-1-yl)-3,5-dihydroxy-6-(hydroxymethyl)tetrahydro-2H-pyran-2-carbonyl)-N-(4-hydroxyphenyl)piperazine-1-carboxamide]",250 nM,
"COc1ccc(N2C[C@@H]3C[C@H]2CN3C(=O)[C@@H]2O[C@H](CO)[C@H](O)[C@H](n3cc(-c4cccc(F)c4)nn3)[C@H]2O)cc1 [Example 19, ((2R,3R,4S,5R,6R)-4-(4-(3-fluorophenyl)-1H-1,2,3-triazol-1-yl)-3,5-dihydroxy-6-(hydroxymethyl)tetrahydro-2H-pyran-2-yl)((1S,4S)-5-(4-methoxyphenyl)-2,5-diazabicyclo[2.2.1]heptan-2-yl)methanone]",250 nM,
O=C([C@@H]1O[C@H](CO)[C@H](O)[C@H](n2cc(-c3cccc(F)c3)nn2)[C@H]1O)N1C[C@@H]2C[C@H]1CN2c1ccc2c(c1)OCO2 [Example 20],,"IC50 (Table 3, read-out: hGal-3 IC50): 249 nM"
COc1ccc(OC)c(N2CC3CC2CN3C(=O)C2OC(CO)C(O)C(n3cc(-c4cccc(F)c4)nn3)C2O)c1 (centres unmarked) [Example 21],,"IC50 (Table 3, read-out: hGal-3 IC50): 962 nM"
COc1ccc(N2CC3CC2CN3C(=O)C2OC(CO)C(O)C(n3cc(-c4cccc(F)c4)nn3)C2O)cc1OC (centres unmarked) [Example 22],,"IC50 (Table 3, read-out: hGal-3 IC50): 522 nM"

# Now from value to molecule, other results behind:
IC50 [1],SMILES,also measured
1300 nM,"O=C([C@@H]1O[C@H](CO)[C@H](O)[C@H](n2cc(-c3cccc(F)c3)nn2)[C@H]1O)N1CCN(c2ccc(O)cc2)CC1CO (single isomer, unassigned) [Example 34a]",
450 nM,"O=C([C@@H]1O[C@H](CO)[C@H](O)[C@H](n2cc(-c3cccc(F)c3)nn2)[C@H]1O)N1CCN(c2ccc(O)cc2)CC1CO (single isomer, unassigned) [Example 34b]",
1100 nM,"O=C([C@@H]1O[C@H](CO)[C@H](O)[C@H](n2cc(-c3cccc(F)c3)nn2)[C@H]1O)N1CCN(c2ccc(O)cc2)C(CO)C1 (single isomer, unassigned) [Example 35a]",
140 nM,"O=C([C@@H]1O[C@H](CO)[C@H](O)[C@H](n2cc(-c3cccc(F)c3)nn2)[C@H]1O)N1CCN(c2ccc(O)cc2)C(CO)C1 (single isomer, unassigned) [Example 35b]",
340 nM,"CC1CN(c2ccc(O)cc2)CCN1C(=O)[C@@H]1O[C@H](CO)[C@H](O)[C@H](n2cc(-c3cccc(F)c3)nn2)[C@H]1O (single isomer, unassigned) [Example 36]",
350 nM,"C[C@@H]1CN(c2ccc(O)cc2)[C@@H](C)CN1C(=O)[C@@H]1O[C@H](CO)[C@H](O)[C@H](n2cc(-c3cccc(F)c3)nn2)[C@H]1O (single isomer, unassigned) [Example 37a]",
310 nM,"C[C@@H]1CN(c2ccc(O)cc2)[C@@H](C)CN1C(=O)[C@@H]1O[C@H](CO)[C@H](O)[C@H](n2cc(-c3cccc(F)c3)nn2)[C@H]1O (single isomer, unassigned) [Example 37b]",
310 nM,"OCC1CN(c2ccc(O)cc2)CCN1C[C@@H]1O[C@H](CO)[C@H](O)[C@H](n2cc(-c3cccc(F)c3)nn2)[C@H]1O (single isomer, unassigned) [Example 39a]",
390 nM,"OCC1CN(c2ccc(O)cc2)CCN1C[C@@H]1O[C@H](CO)[C@H](O)[C@H](n2cc(-c3cccc(F)c3)nn2)[C@H]1O (single isomer, unassigned) [Example 39b]",
940 nM,"OCC1CN(C[C@@H]2O[C@H](CO)[C@H](O)[C@H](n3cc(-c4cccc(F)c4)nn3)[C@H]2O)CCN1c1ccc(O)cc1 (single isomer, unassigned) [Example 40a]",
1600 nM,"OCC1CN(C[C@@H]2O[C@H](CO)[C@H](O)[C@H](n3cc(-c4cccc(F)c4)nn3)[C@H]2O)CCN1c1ccc(O)cc1 (single isomer, unassigned) [Example 40b]",
220 nM,"COc1ccc(N2CC3CC2CN3C(=O)[C@@H]2O[C@H](CO)[C@H](O)[C@H](n3cc(-c4cccc(F)c4)nn3)[C@H]2O)cc1 (stereo in doubt) [Example 31, ((2R,3R,4S,5R,6R)-4-(4-(3-fluorophenyl)-1H-1,2,3-triazol-1-yl)-3,5-dihydroxy-6-(hydroxymethyl)tetrahydro-2H-pyran-2-yl)((1S,4S)-5-(4-methoxyphenyl)-2,5-diazabicyclo[2.2.1]heptan-2-yl)methanone]",
590 nM,"COC(=O)Nc1ccc(N2C[C@@H]3C[C@H]2CN3C(=O)[C@@H]2O[C@H](CO)[C@H](O)[C@H](n3cc(-c4cccc(F)c4)nn3)[C@H]2O)cc1 [Example 23, methyl (4-((1S,4S)-5-((2R,3R,4S,5R,6R)-4-(4-(3-fluorophenyl)-1H-1,2,3-triazol-1-yl)-3,5-dihydroxy-6-(hydroxymethyl)tetrahydro-2H-pyran-2-carbonyl)-2,5-diazabicyclo[2.2.1]heptan-2-yl)phenyl)carbamate]",
680 nM,"CS(=O)(=O)Nc1ccc(N2C[C@@H]3C[C@H]2CN3C(=O)[C@@H]2O[C@H](CO)[C@H](O)[C@H](n3cc(-c4cccc(F)c4)nn3)[C@H]2O)cc1 [Example 24, N-(4-((1S,4S)-5-((2R,3R,4S,5R,6R)-4-(4-(3-fluorophenyl)-1H-1,2,3-triazol-1-yl)-3,5-dihydroxy-6-(hydroxymethyl)tetrahydro-2H-pyran-2-carbonyl)-2,5-diazabicyclo[2.2.1]heptan-2-yl)phenyl)methanesulfonamide]",
900 nM,"O=C([C@@H]1O[C@H](CO)[C@H](O)[C@H](n2cc(-c3cccc(F)c3)nn2)[C@H]1O)N1C[C@@H]2C[C@H]1CN2c1ccc(O)cc1 [Example 25, ((2R,3R,4S,5R,6R)-4-(4-(3-fluorophenyl)-1H-1,2,3-triazol-1-yl)-3,5-dihydroxy-6-(hydroxymethyl)tetrahydro-2H-pyran-2-yl)((1S,4S)-5-(4-hydroxyphenyl)-2,5-diazabicyclo[2.2.1]heptan-2-yl)methanone]",
